Results from patent US9365633B2, “Peptide preparations and peptides with antitumour activity” (Instytut Medycyny Doswiadczalnej I Klinicznej Pan, priority 2010, dated 2016).

Test system: melanoma cells of the line MeW 155
Assay: Effect of synthetic peptides on proliferation of melanoma cells, 3 day culture in 96-well plate
Assay type: cell-based
Conditions: 3 days of culture; for cell numbers, % of the control: 4000 cells per well; for toxicity to MeW 155 melanoma cells: MeW 155, 0.1 mM
Method: The synthetic peptides were examined for their effect on the proliferation of melanoma cells of the line MeW 155. The culture was maintained under standard conditions for 3 days with 4000 cells per well of a 96-well culture plate. After three days, the numbers of cells in the control group increased to 120 000. It turned out that after 3 days of culture, peptide 91 at a concentration of 0.004 mM decreased cell numbers to 55% of the control, and a 0.02 mM concentration decreased the cells to 35%, whereas 0.1 mM was toxic to MeW 155 cells. Peptide 92 at 0.004 mM decreased the number of tumour cells to 65% of the control, a 0.02 mMol concentration decreased the number of cells to 49%, and a concentration of 0.1 mM was toxic to melanoma cells.

Row | Sequence | cell numbers, % of the control (MeW 155, 0.004 mM) | cell numbers, % of the control (MeW 155, 0.02 mM) | toxicity to MeW 155 melanoma cells
1 | YRPWGSGSGFG [peptide 91] | 55% | 35% | toxic
2 | YRPWGSGSGF [compound 92] | 65% | 49% | toxic
